The values that follow come from a melting point compilation (Tetko et al.).

As usually defined, the melting point is the temperature, or range, at which the solid turns liquid.

Molecules are shown by their SMILES.

Turning to `COc1cccc(Cn2c(N)nc3ccccc32)c1`, the melting point fell in the range of 145 to 147 °C. Compound `CNc1ccc(C)nn1` returned a melting point of 162 to 164 °C. The figure for `O=C(O)c1cn(Cc2ccccc2)c2ccccc12` is 192 to 194 °C; for `O=C1CC2(CCSC2)C(=O)O1` (configuration not stated) it is 83 to 85 °C.

In turn, `O=[N+]([O-])c1cc(S(=O)(=O)Nc2ccc(Br)cc2)ccc1Cl` registered a melting point of 123 to 125 °C. `Cc1nn(-c2ccc(Cl)cc2)c(C)c1CC(=O)O` showed a melting point of 178 to 180 °C.

Consider `Nc1ccc(OCC2CCOCC2)cc1`, for which the melting point is 108 to 110 °C. `CN(C)S(=O)(=O)c1ccc(N2CCOCC2)c(N)c1` yielded a melting point of 174 to 176 °C. The figure for `O=C(NCCc1ccccc1)n1ccnc1` is 103 to 105 °C. The figure for `Cc1ccc2c(C)cc(Cl)nc2c1` is 49 to 51 °C; for `O=C1CN(c2ccc(O)cc2)C(=O)N1` it is 325 to 327 °C; for `CCc1c(O)nc(S)n(-c2ccccc2OC)c1=O` it is 160 to 162 °C. Take `Cc1cc(-c2nnco2)ccc1[N+](=O)[O-]`: the melting point was in the range of 119 to 121 °C.

Turning to `CC(C)(C)OC(=O)N1CCCCC1C#N` (configuration not stated), the melting point lay in the range of 62 to 66 °C. Next, `NS(=O)(=O)c1cc(C(=O)O)cc2c1CCCC2`: 275 to 277 °C. Take `Cc1noc(C)c1S(=O)(=O)NCC(=O)O`: the melting point was 113 to 115 °C.

In turn, `[N-]=[N+]=Nc1ccc(Cl)c(Cl)c1` showed a melting point of 32 to 34 °C. In turn, `Cc1cnc2ccccc2c1N` displayed a melting point of 139 to 141 °C.

In turn, `COc1ccc(Cc2nnn[nH]2)cc1F` returned a melting point of 191 to 193 °C. Next, `COc1coc(CCl)cc1=O`: 116 to 118 °C; `O=C(O)c1cc(Cl)cc(Cl)c1OC(F)F`: 128 to 132 °C; `CN(C)C(=O)CO`: 32 to 34 °C. The figure for `COc1cc(N)c(N)cc1OC` is 126 to 128 °C. `Nc1cccc(C(=O)O)n1` showed a melting point of 310 to 312 °C.

`O=C(O)CNS(=O)(=O)c1c(F)cc(F)cc1Br` had a melting point of 136 to 138 °C. The compound `C=CC(=O)NCc1cnc(C)s1` showed a melting point of 111 to 113 °C. The compound `CC(C)(C)c1cc(N)n(C2CCS(=O)(=O)C2)n1` (configuration not stated) came in with a melting point of 247 to 249 °C.

As to `N#Cc1ccc(N2N=C(c3ccccc3)CC2=O)cc1`, the melting point is 211 to 213 °C.

For the compound `CS(=O)(=O)c1ccc(F)c(S(=O)(=O)Cl)c1`, the melting point lay in the range of 122 to 124 °C.

Regarding `O=C(O)COc1ccc2oc3ccccc3c2c1`, the melting point was 132 to 134 °C. Next, `CC(=O)c1cnn(-c2ccc(C#N)cc2)c1C`: 152 to 154 °C.

Take `CCOc1cc(C#N)ccc1O`: the melting point was 75 to 77 °C. In the case of `Cc1nc2c3ccccc3nc(Cl)n2n1`, the melting point lay in the range of 140 to 142 °C. For the compound `O=C(O)c1ccc2c(c1)C(=O)N(C1CCCCC1)C2=O`, the melting point lay within 188 to 201 °C.

`c1ccc(Nc2ncccn2)cc1` yielded a melting point of 107 to 109 °C. Next, `CSc1nc(C2CC2)cc(C(=O)O)c1C#N`: 181 to 183 °C; `Cc1ccccc1OCCC(=O)O`: 92 to 94 °C. Next, `Cc1sc(N)nc1-c1ccc(Cl)cc1`: 146 to 148 °C. For `Cc1nc(C)c(C(=O)O)o1`, the melting point lay within 219 to 221 °C.

In the case of `O=S(=O)(Cl)Cc1cc(Cl)ccc1F`, the melting point is 45 to 47 °C. `O=C(O)c1sc2ccccc2c1CSc1ccccc1Cl` yielded a melting point of 183 to 185 °C. On to `Cc1nc(COc2ccc(/C=C/C(=O)O)cc2)cs1`, for which the melting point was in the range of 185 to 187 °C. In turn, `O=C(O)c1nccn2ccnc12` came in with a melting point of 167 to 169 °C. The figure for `Cc1nc(N)sc1Cl` is 100 to 102 °C. `Cc1cc(C=O)ccc1-n1cncn1` returned a melting point of 104 to 106 °C. The figure for `Oc1ccnc2cc(Cl)c(Br)cc12` is 369 to 371 °C; for `O=C(O)C1Cc2ccccc2CN1C(=O)c1ccccc1` (configuration not stated) it is 141 to 143 °C; for `CC(C)(C)OC(=O)NC(C(=O)O)C(C)(C)C` (configuration not stated) it is 117 to 119 °C. Next, `Cc1cccc(NC(=O)N2CCNCC2)c1`: 109 to 111 °C; `O=C(O)C1CC1c1ccc(OC(F)(F)F)cc1` (configuration not stated): 96 to 98 °C; `CN(CCO)C(=O)c1ccc(O)cc1`: 123 to 125 °C. The figure for `CC(Cl)C(=O)Nc1ccc(OCc2ccccc2)cc1` (configuration not stated) is 141 to 145 °C; for `O=S1(=O)CCCN1c1ccc(Br)cc1F` it is 89 to 91 °C. On to `COc1cc(C=O)ccc1OC(=O)c1ccc(F)cc1`, for which the melting point fell in the range of 100 to 102 °C. The figure for `NNc1ccc(-c2ccccc2)nn1` is 144 to 146 °C; for `COc1ccnc(NCC(=O)O)n1` it is 190 to 192 °C; for `NC(=O)C1CCCN(c2ccc(C(=O)O)cc2)C1` (configuration not stated) it is 259 to 261 °C. Next, `O=C(CCl)NNC(=O)C1CCC1`: 199 to 201 °C; `CCNC(=O)c1ccccc1N`: 93 to 95 °C.

Compound `CCc1ccc(C(=O)O)cc1N` gave a melting point of 146 to 148 °C.

As for `O=[N+]([O-])c1ccc(Cl)c(S(=O)(=O)Nc2nc3ccc(Cl)cc3s2)c1`, the melting point was 328 to 330 °C.

Consider `Cc1cccc(C(N)=O)n1`, for which the melting point fell in the range of 117 to 119 °C. Next, `CN(C)c1ncnc(Cl)c1C=O`: 141 to 143 °C; `O=C(O)c1ccc(Cl)cc1N1CCCC1=O`: 218 to 220 °C. Consider `NNc1oc(-c2ccccc2)nc1C(N)=O`, for which the melting point lay in the range of 173 to 175 °C.

`Nc1nc2ccccc2o1` gave a melting point of 124 to 126 °C. The figure for `Cc1cc(C(=O)O)ccc1-n1cncn1` is 242 to 244 °C; for `CS(=O)(=O)c1ccc(O)c(N)c1` it is 155 to 157 °C; for `Cc1cccc(-n2c(S)nnc2-c2ccccc2)c1` it is 133 to 135 °C. The figure for `CCOC(=O)/C(=C(/O)C(C)Cl)c1nc(C)cs1` (configuration not stated) is 123 to 125 °C. As to `CC(C)c1ccc(S(=O)(=O)N2CCNCC2)cc1`, the melting point lay in the range of 125 to 127 °C. The figure for `ClCc1coc(-c2ccccc2Cl)n1` is 54 to 56 °C; for `Clc1ncnc2c1oc1ccccc12` it is 144 to 146 °C. The figure for `Cn1nc(Br)c(C(=O)NCC(=O)O)c1N` is 239 to 241 °C. The compound `NC(=NO)c1ccc([N+](=O)[O-])cc1` showed a melting point of 187 to 189 °C. Regarding `CC1(c2ccc3c(c2)OCO3)NC(=O)NC1=O` (configuration not stated), the melting point was in the range of 197 to 199 °C. The figure for `Cn1ccnc1SCc1ccccc1[N+](=O)[O-]` is 86 to 88 °C; for `O=C(O)C=C1CCOCC1` it is 99 to 101 °C; for `CN1CCN(S(=O)(=O)c2ccc(Cl)nc2)CC1` it is 129 to 131 °C. As for `O=Cc1coc2ccc([N+](=O)[O-])cc2c1=O`, the melting point lay in the range of 157 to 161 °C. The figure for `N#Cc1ccc(F)cc1N=C=O` is 36 to 38 °C. In the case of `Cc1cccc([N+](=O)[O-])c1S(=O)(=O)Cl`, the melting point is 91 to 93 °C.

The compound `O=C(CCl)c1ccc(F)c(F)c1` returned a melting point of 37 to 39 °C.

`O=C(O)c1ccccc1SCCO`: the melting point lay in the range of 125 to 127 °C. Next, `CN(C1CCCCC1)S(=O)(=O)c1cccc(N)c1`: 109 to 111 °C; `COCc1cccc(CNC(=O)CCl)c1`: 41 to 43 °C; `COC(=O)c1cc2c(OC)c(OC)c(OC)cc2[nH]1`: 136 to 138 °C. The figure for `O=C(O)c1ccc(-c2cccc(OC(F)(F)F)c2)s1` is 149 to 151 °C. Next, `Clc1nc(-c2ccccc2)c2ccccc2n1`: 111 to 113 °C; `CCN1CCNC1=O`: 75 to 77 °C; `Cc1c(C(=O)O)c(O)nc2ccccc12`: 254 to 256 °C. `COC(=O)c1ccc(Oc2ccc(Cl)cc2N)cc1` showed a melting point of 83 to 85 °C. Next, `Cc1cc(N)nn1-c1cccc(F)c1`: 69 to 71 °C. The figure for `CN(C)C(N)=S` is 144 to 146 °C; for `Cc1ccc(NC2C=CS(=O)(=O)C2)cc1C` (configuration not stated) it is 177 to 179 °C.

In the case of `CNc1nc(C)cs1`, the melting point is 69 to 71 °C. For the compound `O=C(O)c1cc(N/N=C/c2ccccc2Br)ccc1Cl`, the melting point was 180 to 182 °C. As to `CC(C)c1ccc(S(=O)(=O)Cc2ccoc2C(=O)O)cc1`, the melting point fell in the range of 156 to 158 °C. On to `N#CCc1nc2scc(C3CC3)c2c(=O)[nH]1`, for which the melting point fell in the range of 284 to 286 °C.

With `C/C(=N\O)c1cc(C(=O)O)c[nH]c1=O`, the melting point lay within 281 to 283 °C. The compound `O=C(CCC1CCCCC1)Nc1ccc(C(=O)O)c(O)c1` registered a melting point of 209 to 211 °C.

In the case of `Cc1ccc(S(N)(=O)=O)cc1C`, the melting point fell in the range of 117 to 119 °C.

In turn, `Nc1nnc(-c2cc3c(s2)CCCC3)o1` showed a melting point of 266 to 268 °C. Next, `Cc1ccc(CN2CC(C(=O)O)CC2=O)cc1` (configuration not stated): 152 to 156 °C; `NCC(O)C1CC1` (configuration not stated): 34 to 36 °C. The figure for `N#Cc1c(OCCO)n[nH]c1N` is 163 to 165 °C; for `N#Cc1ccc(Oc2ccccc2C(F)(F)F)nc1` it is 80 to 82 °C; for `Cc1ccc(C(=O)Cc2ccccc2)cc1C` it is 93 to 95 °C. On to `NC(=O)C1CCN(c2ccccc2N)CC1`, for which the melting point is 199 to 201 °C. Next, `Cc1ccc(Br)cc1S(N)(=O)=O`: 139 to 141 °C; `O=C(O)c1ccc(-c2cccs2)cc1F`: 228 to 230 °C. The figure for `CC(=O)CCc1ccc(OC(C)C(=O)O)cc1` (configuration not stated) is 68 to 70 °C; for `COCCCC(=O)c1ccc(Br)cc1` it is 53 to 55 °C.

In turn, `Cc1nc2c(cnn2-c2ccc(F)cc2)c(=O)[nH]1` displayed a melting point of 329 to 331 °C. Compound `Cc1n[nH]cc1C(=O)NN` yielded a melting point of 199 to 201 °C. `NC(=S)c1cccnc1N1CCNC(=O)C1` registered a melting point of 189 to 191 °C.

In turn, `CNCCNS(=O)(=O)c1ccc(C)cc1` registered a melting point of 84 to 86 °C. As for `Nc1cccc(-c2nccs2)c1`, the melting point lay in the range of 62 to 64 °C. Consider `Cc1ccc2cccnc2c1S(=O)(=O)Cl`, for which the melting point was 149 to 151 °C.

`CC1CCN(Cc2ccccc2CN)CC1` yielded a melting point of 161 to 163 °C. In turn, `Nc1ccc(Oc2ccccc2)cn1` gave a melting point of 67 to 69 °C. Take `Cc1cc(C(=O)O)c2c(C)n[nH]c2n1`: the melting point was 299 to 301 °C.
